Results as given in publication PMC6021035, “Insights into biological activity of ureidoamides with primaquine and amino acid moieties” (Journal of Enzyme Inhibition and Medicinal Chemistry, 2018).
Converted amounts (≈) assume the structure as drawn. Marks after values point to notes of the source that are not given here.

Key:
[1] = system: Issatchenkia orientalis Kudrjanzev ATCC 6258; experiment: MIC determination (broth micro-dilution); assay type: cell-based; settings: Pichia kudriavzevii, ATCC6258
Procedure: (§1) Before analysis, compounds 5a–f were dissolved in 96% ethanol in a concentration of 2 mg/ml as stock solutions. Inoculums were prepared with fresh cultures of microbial strains, cultured on tryptic-soy agar or Sabouraud 2% (m/v) dextrose agar for 18 h (48–72 h for fungi) at 30 °C with physiological saline containing approximately […]. Inoculum density (0.5 McFarland units) was adjusted with a bio Mériex (France) densitometer. Minimum inhibitory concentration (MIC) was determined by the twofold micro-dilution method in Mu¨ller–Hinton broth for bacterial strains and RPMI 1640 + 2% m/v dextrose for fungi according to the EUCAST recommendations in a sterile 96-well flat-bottom plastic tissue culture plate. MIC was determined using a linear regression curve after incubation of compounds and reading the optical density at 570 nm using an iEMS microplate reader. […] All tests were performed in triplicate and expressed as the mean.

[2] = system: Staphylococcus aureus ATCC 25923; experiment: MIC determination (broth micro-dilution); assay type: cell-based; settings: ATCC25923
Procedure: as §1

[3] = system: Kocuria rhizophila ATCC 9341; experiment: MIC determination (broth micro-dilution); assay type: cell-based; settings: ATCC9341
Procedure: as §1

[4] = system: Escherichia coli ATCC 10536; experiment: MIC determination (broth micro-dilution); assay type: cell-based; settings: ATCC10536
Procedure: as §1

[5] = system: Candida albicans ATCC 90028; experiment: MIC determination (broth micro-dilution); assay type: cell-based; settings: ATCC90028
Procedure: as §1

[6] = system: Staphylococcus aureus ATCC 25213; experiment: MIC determination (broth micro-dilution); assay type: cell-based; settings: ATCC25213
Procedure: as §1

[7] = system: Bacillus subtilis ATCC 6633; experiment: MIC determination (broth micro-dilution); assay type: cell-based; settings: ATCC6633
Procedure: as §1

Candida kefyr ATCC 2512 = experiment: MIC determination (broth micro-dilution); assay type: cell-based; settings: Kluyveromyces marxianus, ATCC2512
Procedure: as §1

[8] = system: Enterococcus faecalis ATCC 29212; experiment: MIC determination (broth micro-dilution); assay type: cell-based; settings: ATCC29212
Procedure: as §1

[9] = system: Pseudomonas aeruginosa ATCC 27853; experiment: MIC determination (broth micro-dilution); assay type: cell-based; settings: ATCC27853
Procedure: as §1

[10] = system: Staphylococcus aureus ATCC 6538; experiment: MIC determination (broth micro-dilution); assay type: cell-based; settings: ATCC6538
Procedure: as §1

[11] = system: Candida parapsylosis ATCC 22019; experiment: MIC determination (broth micro-dilution); assay type: cell-based; settings: ATCC22019
Procedure: as §1

[12] = system: Enterococcus hyrae ATCC 8043; experiment: MIC determination (broth micro-dilution); assay type: cell-based; settings: ATCC8043
Procedure: as §1

[13] = system: Escherichia coli ATCC 8739; experiment: MIC determination (broth micro-dilution); assay type: cell-based; settings: ATCC8739
Procedure: as §1

[14] = system: Candida krusei ATCC 14243; experiment: MIC determination (broth micro-dilution); assay type: cell-based; settings: Pichia kudriavzevii, ATCC14243
Procedure: as §1

[15] = system: Aspergillus niger ATCC 16404; experiment: MIC determination (broth micro-dilution); assay type: cell-based; settings: ATCC16404
Procedure: as §1

[16] = system: Candida albicans ATCC 10231; experiment: MIC determination (broth micro-dilution); assay type: cell-based; settings: ATCC10231
Procedure: as §1

[17] = system: Candida tropicalis ATCC 750; experiment: MIC determination (broth micro-dilution); assay type: cell-based; settings: ATCC750
Procedure: as §1

[18] = system: Burkholderia caepacia ATCC 25416; experiment: MIC determination (broth micro-dilution); assay type: cell-based; settings: ATCC25416
Procedure: as §1

[19] = system: Bacillus cereus ATCC 11778; experiment: MIC determination (broth micro-dilution); assay type: cell-based; settings: ATCC11778
Procedure: as §1

[20] = system: Pseudomonas aeruginosa ATCC 9027; experiment: MIC determination (broth micro-dilution); assay type: cell-based; settings: ATCC9027
Procedure: as §1

[21] = Interaction with 1,1-diphenyl-2-picrylhydrazyl (DPPH); settings: 100 μΜ
Procedure: To a solution of DPPH in absolute ethanol, an appropriate volume of the tested compound solution (0.1 mM final concentration) dissolved in DMSO was added. Absorbance was recorded at 517 nm after 20 and 60 min at room temperature (Lambda 20 double beam spectrophotometer, Perkin-Elmer, UK). Experiments were repeated at least in triplicate and the standard deviation of absorbance was less than 10% of the mean[10]. NDGA was used under the same experimental conditions as a reference compound.

[22] = Inhibition of linoleic acid peroxidation (LP), AAPH-initiated; design: tested at 100 µM; settings: 100 μΜ, 37 °C
Procedure: To initiate lipid peroxidation, the free radical AAPH was used[10]. The final solution in the UV cuvette consisted of 10 µl sodium linoleate solution (c = 16 mM) and 0.93 ml phosphate buffer pH 7.4 (c = 50 mM). Afterwards, 10 µl of the tested compound solution in DMSO (final concentration 0.1 mM) and 50 µl of AAPH solution (c = 40 mM) were added. The experiment was performed at 37 °C under air. Oxidation of linoleic acid sodium salt was monitored at 234 nm. The assay was repeated at least in triplicate and the standard deviation of absorbance was less than 10% of the mean. Trolox was used under the same experimental conditions as a reference compound.

S. aureus strains = experiment: MIC determination, S. aureus strains; assay type: cell-based, Staphylococcus aureus
Procedure: as §1

E. coli (both strains) = experiment: Minimum biofilm eradication assay, E. coli both strains; assay type: cell-based, Escherichia coli
Procedure: We tested the susceptibility of different bacterial and yeast strains to compounds 5a–f by determining the minimum biofilm eradication concentration (MBEC). The test was performed in a sterile 96-well flat-bottom plastic tissue culture plate (TPP, Switzerland). Each well was filled with 100 µl of bacterial (10^7 CFUs/ml) or yeast (5 × 10^6 CFUs/ml) suspension. When the possibility of inhibition of yeast biofilm formation was tested, the wells were pre-treated with FBS (250 µl per well). Negative controls contained broth only. Positive controls were performed using standard antibacterial and antifungal drugs gentamycin and amphotericin B, respectively. The plates were covered and incubated aerobically for 24 h (bacteria) or 48 h (yeast) at 37 °C. Following the incubation period, each well was aspirated and washed three times with 250 µl of PBS and vigorously shaken in order to remove all non-adherent bacteria/yeast. The remaining attached cells were fixed with methanol (15 min) and the plates were left to dry overnight. The formed biofilm was stained with crystal violet (1%, 5 min). Excess stain was rinsed by placing the plate under running tap water and the plates were left to dry for 24 h. Adherent cells were resolubilized with acetic acid (33%, v/v). The optical density of each well was measured at 570 nm using a Multiscan plate reader. […]

Row | Compound | MIC [1] | MIC [2] | MIC [3] | MIC [4] | MIC [5] | MIC [6] | MIC [7] | MIC (Candida kefyr ATCC 2512) | MIC [8] | MIC [9] | MIC [10] | MIC [11] | MIC [12] | MIC [13] | MIC [14] | MIC [15] | MIC [16] | MIC [17] | MIC [18] | MIC [19] | other results
1 | COc1cc(NC(C)CCCNC(=O)NC(C(=O)NC(c2ccccc2)c2ccccc2)c2ccc(Cl)cc2)c2ncccc2c1 (stereo not shown) [Compound 5d, 2–(4-chlorophenyl)-N-(diphenylmethyl)-2-[({4-[(6-methoxyquinolin-8-yl)amino]pentyl}carbamoyl)amino]acetamide] | > 100 µg/mL | 25 µg/mL (≈ 39.3 µM) | > 100 µg/mL | 60 µg/mL (≈ 94.3 µM) | > 100 µg/mL | 12.5 µg/mL (≈ 19.6 µM) | 65 µg/mL (≈ 102 µM) | > 100 µg/mL | > 100 µg/mL | 50 µg/mL (≈ 78.6 µM) | 25 µg/mL (≈ 39.3 µM) | > 100 µg/mL | > 100 µg/mL | 65 µg/mL (≈ 102 µM) | > 100 µg/mL | > 100 µg/mL | > 100 µg/mL | > 100 µg/mL | > 100 µg/mL | 50 µg/mL (≈ 78.6 µM) | MIC [20]: 65 µg/mL (≈ 102 µM); DPPH-reducing ability 20 min ([21]; 20 min): 1^b %; DPPH-reducing ability 60 min ([21]; 60 min): 2^b %; melting point: 180 to 183 °C; LP inhibition (%) ± SD [22]: 90 ± 4.5%; MIC (S. aureus strains; Staphylococcus aureus, S. aureus strains, lowest value quoted in text): 6.5 µg/mL (≈ 10.2 µM); MIC range (S. aureus strains; tested Staphylococcus spp.): 12.5 to 25 µg/mL
2 | COc1cc(NC(C)CCCN)c2ncccc2c1 (stereo not shown) [PQ, 8-[(4-amino-1-methylbutyl)amino]-6-methoxyquinoline, reference compound] | > 100 µg/mL | 45 µg/mL (≈ 174 µM) | 50 µg/mL (≈ 193 µM) | 65 µg/mL (≈ 251 µM) | > 100 µg/mL | 70 µg/mL (≈ 270 µM) | 80 µg/mL (≈ 308 µM) | 40 µg/mL (≈ 154 µM) | > 100 µg/mL | 65 µg/mL (≈ 251 µM) | 50 µg/mL (≈ 193 µM) | 25 µg/mL (≈ 96.4 µM) | > 100 µg/mL | 40 µg/mL (≈ 154 µM) | > 100 µg/mL | > 100 µg/mL | 90 µg/mL (≈ 347 µM) | > 100 µg/mL | 80 µg/mL (≈ 308 µM) | 70 µg/mL (≈ 270 µM) | MIC [20]: 70 µg/mL (≈ 270 µM); MBEC (E. coli (both strains)): 25 µg/mL
